The values that follow come from patent publication US9005314B2, “Biphenyl benzyl ether marker compounds for liquid hydrocarbons and other fuels and oils” (Dow Global Technologies LLC, priority 2010, dated 2015).

Broadly, the melting point is the temperature, or range, at which the solid turns liquid.

A short description of data set [1]: Laundering stability/extractability of marker in xylene solution, GC analysis versus un-laundered reference. The following applies: 8 hours; for Marker: 95:5 marked xylenes:agent, relative to control = 100; for Change %: versus control. The data set is classed as physicochemical. As for the experimental part: (§1) The stability and extractability of a representative marker was performed using xylene solutions containing between 100-1000 ppm maker and an equivalent amount of squalene internal reference standard using the following protocols:
Mix 95 parts marked xylenes with 5 parts laundering agent in a 100 mL vial. Mix gently for 8 hours using a magnetic stir bar. Stop mixing and remove a xylene solution aliquot. Analyze by GC and compare marker response to reference (un-laundered) sample.
(§2) Laundering Agents: • 1) 5% sulfuric acid • 2) 98% sulfuric acid • 3) 5% NaOH solution • 4) 50% NaOH solution To test for metal adsorptivity, 100 mL marked xylene tests solution is treated with 5 grams metal shavings at room temperature for 8 hours. GC analysis is again used to determine any loss of marker to the metal surface.

Data set [2] is described as follows: Metal adsorptivity: marked xylene treated with metal shavings, GC analysis. The following applies: 100 mL marked xylene, 5 grams metal shavings, room temperature, 8 hours. Type of data set: physicochemical. On the procedure:
as §1, §2

`Cc1ccccc1OCc1ccc(-c2ccc(COc3ccccc3C)cc2)cc1` [4,4′-bis(2-methylphenoxymethyl)-1,1′-biphenyl] displayed a melting point of 209 °C.

`Cc1ccc(OCc2ccc(-c3ccc(COc4ccc(C)cc4)cc3)cc2)cc1` [4,4′-bis(4-methylphenoxymethyl)-1,1′-biphenyl] showed a melting point of 206 °C.

Turning to `c1ccc(OCc2ccc(-c3ccc(COc4ccccc4)cc3)cc2)cc1` [4,4′-bis(phenoxymethyl)-1,1′-biphenyl], the melting point worked out at 176 °C. For the same compound, in data set [1] (5% H2SO4 laundering agent), the Marker is reported as 85.51 and the Change % is on record as −14.49%. Further, in data set [1] (5% NaOH laundering agent), the Marker turned out to be 100.01 and the Change % is reported as 0.01%. In data set [1] (50% NaOH laundering agent), the Marker was found to be 101.85 and the Change % stood at 1.85%. Also, in data set [1] (98% H2SO4 laundering agent), the Marker was 0.00 and the Change % is −100.00%. Further, in data set [2], the Change % entry was “+4%” and the Marker worked out at 104%.

Take `CC(C)(C)c1ccc(OCc2ccc(-c3ccc(COc4ccc(C(C)(C)C)cc4)cc3)cc2)cc1` [Example 4, 4,4′-bis(4-t-butylphenoxymethyl)-1,1′-biphenyl]: the melting point was 218 °C.
